According to patent US10202360B2 (CELGENE QUANTICEL RESEARCH, INC., priority 2016, dated 2019):

Molecular target: CREBBP (Homo sapiens (Human), UniProt Q92793)
Experiment: In vitro enzyme inhibition assay - CREBBP inhibition (AlphaScreen, biotinylated H4-tetraacetyl peptide)
Assay type: binding
Conditions: Table 28; AlphaScreen, H4-tetraacetyl peptide
In short: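 His-tagged CREBBP expressed in E. coli (50 nM final) incubated with biotinylated H4K5/8/12/16(Ac) peptide (20 nM final) in HEPES pH 7.3 buffer, 0.4% DMSO, 20 min at room temperature.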

Sequence of CREBBP (Q92793 1081-1197): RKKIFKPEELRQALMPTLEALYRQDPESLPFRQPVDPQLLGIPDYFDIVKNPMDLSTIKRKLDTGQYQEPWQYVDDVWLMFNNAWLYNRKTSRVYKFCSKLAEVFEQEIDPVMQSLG

| IC50 [nM] | Structure (SMILES) |
| --- | --- |
| < 500 | CCCCS(=O)(=O)Nc1cc(-c2cc(C)c(=O)n(C)c2)nc(Oc2c(C)cccc2F)n1 [Example 19, Butane-1-sulfonic acid [6-(1,5-dimethyl-6-oxo-1,6-dihydro-pyridin-3-yl)-2-(2-fluoro-6-methyl-phenoxy)-pyrimidin-4-yl]-amide] |
| 500 to 5000 | Cc1cc(-c2cc(NS(=O)(=O)C(C)C)nc(Cc3ccc(F)cc3F)n2)cn(C)c1=O [Example 93, Propane-2-sulfonic acid [2-(2,4-difluoro-benzyl)-6-(1,5-dimethyl-6-oxo-1,6-dihydro-pyridin-3-yl)-pyrimidin-4-yl]-amide] |
| < 500 | CN(Cc1ccccc1)c1cc(-c2ccc(=O)n(C)c2)nc(Oc2ccc(F)cc2F)n1 [Example 275, 5-(6-(benzyl(methyl)amino)-2-(2,4-difluorophenoxy)pyrimidin-4-yl)-1-methylpyridin-2(1H)-one] |
| < 500 | Cc1cc(-c2cc(NCCc3ccccc3)nc(Oc3ccc(F)cc3F)n2)cn(C)c1=O [Example 271, 5-(2-(2,4-difluorophenoxy)-6-(phenethylamino)pyrimidin-4-yl)-1,3-dimethylpyridin-2(1H)-one] |
| < 500 | CCCCS(=O)(=O)Nc1cc(-c2cc(C)c(=O)n(C)c2)nc(Oc2c(C)cc(F)cc2Cl)n1 [Example 98, Butane-1-sulfonic acid [2-(2-chloro-4-fluoro-6-methyl-phenoxy)-6-(1,5-dimethyl-6-oxo-1,6-dihydro-pyridin-3-yl)-pyrimidin-4-yl]-amide] |
| < 500 | Cc1cc(-c2cc(NS(=O)(=O)C(C)C)cc(Oc3ccc(F)cc3F)n2)cn(C)c1=O [Example 90, N-(6-(2,4-difluorophenoxy)-1′,5′-dimethyl-6′-oxo-1′,6′-dihydro-[2,3′-bipyridin]-4-yl)propane-2-sulfonamide] |
| < 500 | CCS(=O)(=O)Nc1cc(-c2cc(C)c(=O)n(C)c2)nc(OC(C)c2ccccc2)n1 (stereo not drawn) [Example 147, Ethanesulfonic acid [6-(1,5-dimethyl-6-oxo-1,6-dihydro-pyridin-3-yl)-2-(1-phenyl-ethoxy)-pyrimidin-4-yl]-amide] |
| < 500 | COc1ccc(C#N)cc1Oc1nc(NS(=O)(=O)C(C)C)cc(-c2cc(C)c(=O)n(C)c2)n1 [Example 9, Propane-2-sulfonic acid [2-(5-cyano-2-methoxy-phenoxy)-6-(1,5-dimethyl-6-oxo-1,6-dihydro-pyridin-3-yl)-pyrimidin-4-yl]-amide] |
| < 500 | Cn1cc(-c2cc(Nc3ccccc3)nc(Oc3ccc(F)cc3F)n2)ccc1=O [Example 276, 5-(2-(2,4-difluorophenoxy)-6-(phenylamino)pyrimidin-4-yl)-1-methylpyridin-2(1H)-one] |
| < 500 | CCCS(=O)(=O)Nc1cc(-c2cc(C)c(=O)n(C)c2)nc(Oc2c(F)cccc2Cl)n1 [Example 141, Propane-1-sulfonic acid [2-(2-chloro-6-fluoro-phenoxy)-6-(1,5-dimethyl-6-oxo-1,6-dihydro-pyridin-3-yl)-pyrimidin-4-yl]-amide] |
| < 500 | COc1ccc(C)cc1Oc1nc(NS(=O)(=O)C(C)C)cc(-c2cc(C)c(=O)n(C)c2)n1 [Example 4, Propane-2-sulfonic acid [6-(1,5-dimethyl-6-oxo-1,6-dihydro-pyridin-3-yl)-2-(2-methoxy-5-methyl-phenoxy)-pyrimidin-4-yl]-amide] |
| < 500 | Cc1cccc(F)c1Oc1nc(NCc2ccccc2)cc(-c2ccc(=O)n(C)c2)n1 [Example 292, 5-[6-Benzylamino-2-(2-fluoro-6-methyl-phenoxy)-pyrimidin-4-yl]-1-methyl-1H-pyridin-2-one] |
| < 500 | CCCCS(=O)(=O)Nc1cc(-c2cc(C)c(=O)n(C)c2)nc(Oc2cc(Cl)ccc2Cl)n1 [Example 13, Butane-1-sulfonic acid [2-(2,5-dichloro-phenoxy)-6-(1,5-dimethyl-6-oxo-1,6-dihydro-pyridin-3-yl)-pyrimidin-4-yl]-amide] |

Continued, compound first:

| Structure (SMILES) | IC50 [nM] |
| --- | --- |
| Cc1cccc(F)c1Oc1nc(NS(=O)(=O)CCCC(F)(F)F)cc(-c2ccc(=O)n(C)c2)n1 [Example 146, 4,4,4-Trifluoro-butane-1-sulfonic acid [2-(2-fluoro-6-methyl-phenoxy)-6-(1-methyl-6-oxo-1,6-dihydro-pyridin-3-yl)-pyrimidin-4-yl]-amide] | < 500 |
| Cn1cc(-c2cc3nc(n2)Oc2cc(ccc2F)OCC=CCCCS(=O)(=O)N3)ccc1=O [Example 362, 5-(36-fluoro-11,11-dioxido-2,4-dioxa-11-thia-12-aza-1(2,4)-pyrimidina-3(1,3)-benzenacyclododecaphan-6-en-1^6-yl)-1-methylpyridin-2(1H)-one] | < 500 |
| CCCS(=O)(=O)Nc1cc(-c2cc(C)c(=O)n(C)c2)cc(Oc2c(C)cccc2C)n1 [Example 92, N-(6′-(2,6-dimethylphenoxy)-1,5-dimethyl-6-oxo-1,6-dihydro-[3,4′-bipyridin]-2′-yl)propane-1-sulfonamide] | < 500 |
| Cc1cccc(F)c1Oc1nc(NS(=O)(=O)C(C)C)c(C)c(-c2cc(C)c(=O)n(C)c2)n1 [Example 162, Propane-2-sulfonic acid [6-(1,5-dimethyl-6-oxo-1,6-dihydro-pyridin-3-yl)-2-(2-fluoro-6-methyl-phenoxy)-5-methyl-pyrimidin-4-yl]-amide] | < 500 |
| CCCCS(=O)(=O)Nc1cc(-c2cc(Cl)c(=O)n(C)c2)nc(Oc2c(C)cccc2C#N)n1 [Example 114, Butane-1-sulfonic acid [6-(5-chloro-1-methyl-6-oxo-1,6-dihydro-pyridin-3-yl)-2-(2-cyano-6-methyl-phenoxy)-pyrimidin-4-yl]-amide] | < 500 |
| Cn1cc(-c2cc(NS(=O)(=O)CCC3CC3)nc(Oc3c(F)cccc3Cl)n2)ccc1=O [Example 268, 2-Cyclopropyl-ethanesulfonic acid [2-(2-chloro-6-fluoro-phenoxy)-6-(1-methyl-6-oxo-1,6-dihydro-pyridin-3-yl)-pyrimidin-4-yl]-amide] | < 500 |
| CCCCS(=O)(=O)Nc1cc(-c2ccc(=O)n(C)c2)nc(Oc2c(C)cc(Cl)cc2Cl)n1 [Example 32, Butane-1-sulfonic acid [2-(2,4-dichloro-6-methyl-phenoxy)-6-(1-methyl-6-oxo-1,6-dihydro-pyridin-3-yl)-pyrimidin-4-yl]-amide] | < 500 |
| CC(C)S(=O)(=O)Nc1cc(-c2ccc(=O)n(C)c2)nc(Oc2c(F)cccc2Cl)n1 [Example 144, Propane-2-sulfonic acid [2-(2-chloro-6-fluoro-phenoxy)-6-(1-methyl-6-oxo-1,6-dihydro-pyridin-3-yl)-pyrimidin-4-yl]-amide] | < 500 |
| COc1nc(NCC2CCCc3ccccc32)cc(-c2ccc(=O)n(C)c2)n1 (stereo not drawn) [Example 331, 5-{2-Methoxy-6-[(1,2,3,4-tetrahydro-naphthalen-1-ylmethyl)-amino]-pyrimidin-4-yl}-1-methyl-1H-pyridin-2-one] | < 500 |
| Cc1cccc(Cl)c1Oc1nc(N)cc(-c2ccc(=O)n(C)c2)n1 [Example 333, 5-[6-Amino-2-(2-chloro-6-methyl-phenoxy)-pyrimidin-4-yl]-1-methyl-1H-pyridin-2-one] | < 500 |
| CCCCS(=O)(=O)Nc1cc(-c2ccc(=O)n(C)c2)nc(Oc2c(Cl)ccc(C)c2F)n1 [Example 258, Butane-1-sulfonic acid [2-(6-chloro-2-fluoro-3-methyl-phenoxy)-6-(1-methyl-6-oxo-1,6-dihydro-pyridin-3-yl)-pyrimidin-4-yl]-amide] | < 500 |
